Laboratory results taken from patent US11117900B2 (Vertex Pharmaceuticals Incorporated, priority 2012, dated 2021).

What follows are compounds tested against full-length ATR (Homo sapiens (Human), UniProt Q13535) (assay: ATR inhibition assay (radioactive-phosphate incorporation)). Details: Ki(app), 5 nM full-length ATR, 10 μM ATP, 25° C.
Type: biochemical
Protocol: Compounds were screened for their ability to inhibit ATR kinase using a radioactive-phosphate incorporation assay. Assays were carried out in a mixture of 50 mM Tris/HCl (pH 7.5), 10 mM MgCl2 and 1 mM DTT. Final substrate concentrations were 10 μM [γ-33P]ATP (3 mCi 33P ATP/mmol ATP, Perkin Elmer) and 800 μM target peptide ([…]) (SEQ ID NO:1).
Assays were carried out at 25° C. in the presence of 5 nM full-length ATR. An assay stock buffer solution was prepared containing all of the reagents listed above, with the exception of ATP and the test compound of interest. 13.5 μL of the stock solution was placed in a 96 well plate followed by addition of 2 μL of DMSO stock containing serial dilutions of the test compound (typically starting from a final concentration of 15 μM with 3-fold serial dilutions) in duplicate (final DMSO concentration 7%). The plate was pre-incubated for 10 minutes at 25° C. and the reaction initiated by addition of 15 μL [γ-33P]ATP (final concentration 10 μM).
The reaction was stopped after 24 hours by the addition of […] phosphoric acid containing 2 mM ATP. […]
After removing mean background values for all of the data points, Ki(app) data were calculated from non-linear regression analysis of the initial rate data using the Prism software package (GraphPad Prism version 3.0 cx for Macintosh, GraphPad Software, San Diego Calif., USA).
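Throughout, for Cisplatin sensitization assay: compound concentration needed to lower the IC50 of Cisplatin alone by a set fold.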

Chain of full-length ATR (Q13535 whole entry): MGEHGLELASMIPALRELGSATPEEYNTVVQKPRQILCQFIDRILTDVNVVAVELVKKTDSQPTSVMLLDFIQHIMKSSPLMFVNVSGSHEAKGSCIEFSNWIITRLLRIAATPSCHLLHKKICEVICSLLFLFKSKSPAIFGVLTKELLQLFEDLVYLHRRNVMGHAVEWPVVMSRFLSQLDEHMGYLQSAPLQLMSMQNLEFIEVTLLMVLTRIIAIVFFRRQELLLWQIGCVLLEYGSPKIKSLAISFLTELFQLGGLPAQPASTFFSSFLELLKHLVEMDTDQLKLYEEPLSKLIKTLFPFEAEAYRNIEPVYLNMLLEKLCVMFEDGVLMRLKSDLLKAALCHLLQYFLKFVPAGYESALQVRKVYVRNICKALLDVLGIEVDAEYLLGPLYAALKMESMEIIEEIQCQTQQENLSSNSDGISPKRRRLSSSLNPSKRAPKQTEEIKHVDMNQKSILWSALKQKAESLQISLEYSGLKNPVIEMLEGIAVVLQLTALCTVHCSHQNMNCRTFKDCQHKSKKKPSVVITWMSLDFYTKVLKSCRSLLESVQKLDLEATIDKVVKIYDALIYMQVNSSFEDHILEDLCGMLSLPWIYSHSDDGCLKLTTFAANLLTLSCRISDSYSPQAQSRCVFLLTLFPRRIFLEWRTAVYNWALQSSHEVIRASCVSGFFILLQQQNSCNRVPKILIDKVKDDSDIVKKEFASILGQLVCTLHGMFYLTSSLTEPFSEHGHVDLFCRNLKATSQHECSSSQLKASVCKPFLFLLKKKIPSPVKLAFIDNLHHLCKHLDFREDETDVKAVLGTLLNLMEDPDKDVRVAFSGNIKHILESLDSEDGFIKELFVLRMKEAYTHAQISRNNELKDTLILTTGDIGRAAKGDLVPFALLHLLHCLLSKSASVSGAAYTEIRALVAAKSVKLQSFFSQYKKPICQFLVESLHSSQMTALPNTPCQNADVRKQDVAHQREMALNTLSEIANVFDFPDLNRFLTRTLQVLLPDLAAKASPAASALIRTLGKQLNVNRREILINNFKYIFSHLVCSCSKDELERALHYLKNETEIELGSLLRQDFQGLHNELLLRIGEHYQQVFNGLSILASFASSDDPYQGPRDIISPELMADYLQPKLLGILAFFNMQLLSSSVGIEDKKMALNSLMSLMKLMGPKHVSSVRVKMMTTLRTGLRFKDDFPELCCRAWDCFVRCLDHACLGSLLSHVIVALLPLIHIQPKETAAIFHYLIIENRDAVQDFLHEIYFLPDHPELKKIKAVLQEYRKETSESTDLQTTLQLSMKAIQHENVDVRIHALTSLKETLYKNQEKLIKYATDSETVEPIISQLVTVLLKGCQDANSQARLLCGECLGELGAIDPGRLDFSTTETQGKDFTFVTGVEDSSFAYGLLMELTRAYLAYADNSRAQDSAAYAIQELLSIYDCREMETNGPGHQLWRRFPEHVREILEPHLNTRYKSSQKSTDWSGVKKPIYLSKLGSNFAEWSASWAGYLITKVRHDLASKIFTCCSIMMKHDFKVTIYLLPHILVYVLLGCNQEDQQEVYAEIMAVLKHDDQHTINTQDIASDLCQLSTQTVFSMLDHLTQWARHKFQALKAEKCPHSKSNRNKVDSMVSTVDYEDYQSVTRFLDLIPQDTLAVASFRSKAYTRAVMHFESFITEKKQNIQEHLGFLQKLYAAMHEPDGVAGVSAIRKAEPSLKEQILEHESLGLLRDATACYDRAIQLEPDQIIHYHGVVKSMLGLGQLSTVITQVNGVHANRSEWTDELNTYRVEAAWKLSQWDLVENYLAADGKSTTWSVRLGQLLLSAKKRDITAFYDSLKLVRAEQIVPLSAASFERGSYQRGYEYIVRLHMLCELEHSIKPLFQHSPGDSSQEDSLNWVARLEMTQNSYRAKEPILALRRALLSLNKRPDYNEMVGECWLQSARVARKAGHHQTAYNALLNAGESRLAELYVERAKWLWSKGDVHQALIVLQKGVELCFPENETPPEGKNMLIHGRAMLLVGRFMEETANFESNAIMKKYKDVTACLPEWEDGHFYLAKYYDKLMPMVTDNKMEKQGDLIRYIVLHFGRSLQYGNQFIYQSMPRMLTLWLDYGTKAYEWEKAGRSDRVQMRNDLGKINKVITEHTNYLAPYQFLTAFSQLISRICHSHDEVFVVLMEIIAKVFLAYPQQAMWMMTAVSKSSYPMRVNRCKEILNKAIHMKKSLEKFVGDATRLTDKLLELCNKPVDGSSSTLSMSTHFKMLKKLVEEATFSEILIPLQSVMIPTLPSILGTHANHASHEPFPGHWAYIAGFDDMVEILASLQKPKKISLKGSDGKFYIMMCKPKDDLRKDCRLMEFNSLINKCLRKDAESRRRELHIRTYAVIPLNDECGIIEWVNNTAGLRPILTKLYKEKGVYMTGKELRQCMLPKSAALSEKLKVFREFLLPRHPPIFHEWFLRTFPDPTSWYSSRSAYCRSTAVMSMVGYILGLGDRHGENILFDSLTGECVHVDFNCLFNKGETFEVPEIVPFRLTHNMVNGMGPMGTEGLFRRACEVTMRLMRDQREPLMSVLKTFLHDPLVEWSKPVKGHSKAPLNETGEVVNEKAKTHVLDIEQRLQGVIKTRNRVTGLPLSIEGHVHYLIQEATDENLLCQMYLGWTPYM

Row | SMILES | Ki [nM]
1 | Nc1nn2cc(F)cnc2c1C(=O)Nc1cnccc1OC1CC[S+]([O-])CC1 (stereo not shown) [I-O-44, 2-amino-6-fluoro-N-(4-((1-oxidotetrahydro-2H-thiopyran-4-yl)oxy)pyridin-3-yl)pyrazolo[1,5-a]pyrimidine-3-carboxamide] | 10 to 1000

The compounds below were run on HCT116 colorectal cancer cells (assay: Cisplatin sensitization assay (96 h MTS cell viability)). Details: Cisplatin sensitization value.
Type: cell-based
In short: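 HCT116 cells were dosed simultaneously with compound and cisplatin as a full matrix of 2-fold serial dilutions from 10 μM top final concentration. Incubation was 96 h at 37° C., 5% CO2, followed by 1 h with MTS reagent for the viability read-out. Sensitization values were binned into +++, ++ and + categories.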

Row | SMILES | Cisplatin Sensitization Assay
2 | Nc1nn2cc(F)cnc2c1C(=O)Nc1cnccc1OC1CC[S+]([O-])CC1 (stereo not shown) [I-O-44, 2-amino-6-fluoro-N-(4-((1-oxidotetrahydro-2H-thiopyran-4-yl)oxy)pyridin-3-yl)pyrazolo[1,5-a]pyrimidine-3-carboxamide] | ++ (Compounds with a Cisplatin sensitization value >0.02 μM but <0.2 μM are marked with “++.”)
3 | COC1(C)CN(C(=O)C2CCN(c3c(F)cncc3NC(=O)c3c(N)nn4cc(F)cnc34)CC2)C1 [I-G-75, 2-amino-6-fluoro-N-(5-fluoro-4-(4-(3-methoxy-3-methylazetidine-1-carbonyl)piperidin-1-yl)pyridin-3-yl)pyrazolo[1,5-a]pyrimidine-3-carboxamide] | +++ (Compounds with a Cisplatin sensitization value of <0.02 μM are marked with “+++.”)
4 | N#CCc1cnc2c(C(=O)Nc3cnccc3OCCN)c(N)nn2c1 [I-O-83, 2-amino-N-(4-(2-aminoethoxy)pyridin-3-yl)-6-(cyanomethyl)pyrazolo[1,5-a]pyrimidine-3-carboxamide] | +++ (Compounds with a Cisplatin sensitization value of <0.02 μM are marked with “+++.”)
5 | Cn1nncc1-c1ccncc1NC(=O)c1c(N)nn2cc(F)cnc12 [I-C-72, 2-amino-6-fluoro-N-(4-(1-methyl-1H-1,2,3-triazol-5-yl)pyridin-3-yl)pyrazolo[1,5-a]pyrimidine-3-carboxamide] | +++ (Compounds with a Cisplatin sensitization value of <0.02 μM are marked with “+++.”)
6 | COCCN1CCC[C@H](Oc2ccncc2NC(=O)c2c(N)nn3cc(Cl)cnc23)C1 [I-O-67, (S)-2-amino-6-chloro-N-(4-((1-(2-methoxyethy)piperidin-3-yl)oxy)pyridin-3-yl)pyrazolo[1,5-a]pyrimidine-3-carboxamide] | ++ (Compounds with a Cisplatin sensitization value >0.02 μM but <0.2 μM are marked with “++.”)
7 | Nc1nn2cc(F)cnc2c1C(=O)Nc1cnccc1C1CCN(C(=O)C23CCN(CC2)CC3)CC1 [I-C-18, 2-amino-6-fluoro-N-(4-(1-(quinuclidine-4-carbonyl)piperidin-4-yl)pyridin-3-yl)pyrazolo[1,5-a]pyrimidine-3-carboxamide] | + (Compounds with a Cisplatin sensitization value >0.2 μM but <5 μM are marked with “+.”)
8 | Nc1nn2cc(F)cnc2c1C(=O)Nc1cnccc1O[C@H]1CCCN(C2COC2)C1 [I-O-9, (S)-2-amino-6-fluoro-N-(4-((1-(oxetan-3-yl)piperidin-3-yl)oxy)pyridin-3-yl)pyrazolo[1,5-a]pyrimidine-3-carboxamide] | ++ (Compounds with a Cisplatin sensitization value >0.02 μM but <0.2 μM are marked with “++.”)
9 | Nc1nn2cc(F)cnc2c1C(=O)Nc1cnccc1N1CCN2C(=O)OCC2C1 (stereo not shown) [I-N-238, 2-amino-6-fluoro-N-(4-(3-oxotetrahydro-1H-oxazolo[3,4-a]pyrazin-7(3H)-yl)pyridin-3-yl)pyrazolo[1,5-a]pyrimidine-3-carboxamide] | ++ (Compounds with a Cisplatin sensitization value >0.02 μM but <0.2 μM are marked with “++.”)
10 | Nc1nn2cc(Cl)cnc2c1C(=O)Nc1cnccc1OC1CCCOC1 (stereo not shown) [I-O-65, 2-amino-6-chloro-N-(4-((tetrahydro-2H-pyran-3-yl)oxy)pyridin-3-yl)pyrazolo[1,5-a]pyrimidine-3-carboxamide] | +++ (Compounds with a Cisplatin sensitization value of <0.02 μM are marked with “+++.”)
11 | Nc1nn2cc(F)cnc2c1C(=O)Nc1cnccc1N1CCN([C@@H]2CCOC2)CC1 [I-N-10, (R)-2-amino-6-fluoro-N-(4-(4-(tetrahydrofuran-3-yl)piperazin-1-yl)pyridin-3-yl)pyrazolo[1,5-a]pyrimidine-3-carboxamide] | ++ (Compounds with a Cisplatin sensitization value >0.02 μM but <0.2 μM are marked with “++.”)
12 | N#CCc1cnc2c(C(=O)Nc3cnccc3OC3CCCCC3)c(N)nn2c1 [I-O-39, 2-amino-6-(cyanomethyl)-N-(4-(cyclohexyloxy)pyridin-3-yl)pyrazolo[1,5-a]pyrimidine-3-carboxamide] | +++ (Compounds with a Cisplatin sensitization value of <0.02 μM are marked with “+++.”)
13 | CN(C)CCOc1ccncc1NC(=O)c1c(N)nn2cc(CC#N)cnc12 [I-O-24, 2-amino-6-(cyanomethyl)-N-(4-(2-(dimethylamino)ethoxy)pyridin-3-yl)pyrazolo[1,5-a]pyrimidine-3-carboxamide] | ++ (Compounds with a Cisplatin sensitization value >0.02 μM but <0.2 μM are marked with “++.”)
